US4562275A, “Antitumor platinum complexes” (priority 1984, dated 1985)
“And” between values parts separate entries of the source, which are not always exact repeats. Equal values may be shown once.

Legend:
M109 carcinoma = experiment: Antitumor activity vs ip M109 (Madison 109 lung) carcinoma in mice; assay type: in vivo, mouse; parameters: O.D.: unit not given here; settings: for O.D.: ip M109 (2×; 4×); for Max. % T/C: ip M109 (2×; 4×): q3d × 2 or qd 1-4, ip, dying mice only
Excerpt: (§1) Results of antitumor testing against the transplantable mouse tumors L1210 leukemia, cisplatin-resistant L1210 leukemia, B16 melanoma, Madison 109 lung carcinoma and colon 26 carcinoma are shown below in Tables 1 and 2.
(§2) The methods used to evaluate the platinum complexes for antitumor activity and toxicity in animals are summarized below. These methods have been published elsewhere in more detail (Rose, et al. Cancer Treat. Rep. 66: 135, 1982; Florczyk, et al, Cancer Treat. Rep. 66: 187, 1982).
(§3) The parent line of L1210 leukemia (L1210) was maintained in DBA/2 mice by ip transplantation of 10^5 cells at weekly intervals. […] B16 malenoma (B16) was maintained by sc transplant in C57BL/6 mice every two weeks. Madison 109 lung carcinoma (M109) and colon 26 carcinoma (C26) were maintained by sc transplant in BALB/c mice every two weeks.
(§4) The level and route of tumor inoculum, host, group size, and drug treatment schedule and route for each tumor type are summarized below in Table 6. Each complex was evaluated initially against L1210 at 4 dose levels per schedule selected on the basis of lethality data provided by the Wadley Institute. In subsequent experiments with the other tumors the complexes were evaluated at a minimum of 3 dose levels selected on the basis of maximum tolerated levels in the L1210 experiments. Cisplatin-treated groups and a saline-treated (or untreated) tumor control group were included in each experiment.
(§5) The L1210 experiments were terminated on Day 30 whereas the B16, C26 and M109 experiments were terminated on Day 60 (some C26 experiments were terminated on Day 75). Mice alive at the termination day were autopsied and considered cured if no tumor was visible. […] A complex was considered active if it produced a % T/C value ≥125.
8 q3d^a × 2 or qd 1-4, ip

B16 melanoma = experiment: Antitumor activity vs ip B16 melanoma in mice; assay type: in vivo, mouse; parameters: O.D.: unit not given here; settings: for O.D.: ip B16 (3×; 9×); for Max. % T/C: ip B16 (3×; 9×): q4d × 3 or qd 1-9, ip, dying mice only
Excerpt: as §2, §3
The level and route of tumor inoculum, host, group size, and drug treatment schedule and route for each tumor type are summarized below in Table 6. Each complex was evaluated initially against L1210 at 4 dose levels per schedule selected on the basis of lethality data provided by the Wadley Institute.
as §5

C26 carcinoma = experiment: Antitumor activity vs ip C26 (colon 26) carcinoma in mice; assay type: in vivo, mouse; parameters: O.D.: unit not given here; settings: for O.D.: ip C26 (2×; 4×); for Max. % T/C: ip C26 (2×; 4×): q3d × 2 or qd 1-4, ip, dying mice only
Excerpt: as §1, §2, §3, §4, §5
8 q3d^b × 2 or qd 1-4, ip

BDF1 mice [1] = experiment: Nephrotoxicity: effect on blood urea nitrogen (BUN) in BDF1 mice; settings: for BUN↑, Mouse: effect relative to cisplatin
Procedure: The other compounds were in such short supply that they were tested for effects on BUN values using the optimum dose (O.D.) from the L1210 test for dose selection.
The toxicity studies were done in male BDF1 mice (25-29 gm) and castrated male Fitch ferrets (1-1.5 kg).
The complexes that were active against L1210 were evaluated for nephrotoxicity by determining their effects on blood urea nitrogen (BUN) levels in mice. Groups of 40-50 mice/experiment were bled from the retro-orbital plexus and individual BUN values determined by a modified urease method using a Centrifichem System 400. The test complex, or saline for controls, was given at several dose levels (5-10 mice/dose) in single ip injections. The highest dose of the complex usually corresponded to its LD50 value or 1.5 times its optimal single dose in the L1210 experiment. At least two lower doses were included to evaluate dose-related effects. The BUN values were measured 4 and 7 days after dosing. BUN values ≥30 mg% were considered indicative of drug-induced nephrotoxicity.

BDF1 mice [2] = experiment: Deaths (D.14) in the BUN test in BDF1 mice; assay type: in vivo, mouse
L1210 leukemia = experiment: Antitumor activity vs transplantable L1210 leukemia (ip) in mice; assay type: in vivo, mouse; settings: for Max % T/C: dying mice only; for OD (optimum dose): optimum dose from the L1210 test
Excerpt: The antitumor activities of the complexes provided by the present invention have been determined against L-1210 leukemia in the mouse and, for certain of the complexes, against other mouse tumor systems.
as §1
In Table 1 are shown the maximum % T/C values obtained for each platinum compound versus L1210 leukemia using both single and qd 1→5 dosing.
as §2, §3, §4, §5

[3] = Solubility stated in the preparation examples
[4] = test system: L1210/CDDP (cisplatin resistant line of L1210 leukemia); experiment: Antitumor activity vs cisplatin-resistant L1210 leukemia (L1210/CDDP) in mice; assay type: in vivo, mouse; settings: for Cures/total / O.D. (optimal dose): Day 1; for Max % T/C: Day 1, dying mice only
Excerpt: Results of antitumor testing against the transplantable mouse tumors L1210 leukemia, cisplatin-resistant L1210 leukemia, B16 melanoma, Madison 109 lung carcinoma and colon 26 carcinoma are shown below in Tables 1 and 2. […]
as §2, §3, §4, §5

[5] = L1210, single dose Day 1, ip, (a), (b) determinations
[6] = L1210, single dose Day 1, ip, dose giving the Max % T/C, same order

Row | SMILES | O.D. (M109 carcinoma) | Max. % T/C (M109 carcinoma) [%] | O.D. (B16 melanoma) | Max. % T/C (B16 melanoma) [%] | O.D. (C26 carcinoma) | Max. % T/C (C26 carcinoma) [%] | BUN↑, Mouse (BDF1 mice [1]) | O.D. (optimal dose) (L1210 leukemia; L1210, QD 1 → 5, ip) | Max % T/C (L1210 leukemia; L1210, QD 1 → 5, ip) | Max % T/C (L1210 leukemia; [5]) | O.D. (optimal dose) (L1210 leukemia; [6]) | OD (optimum dose) (L1210 leukemia) [mg/kg/ip] | Cures/total [4] | O.D. (optimal dose) [4] [mg/kg/inj] | Max % T/C [4] [%] | other results
1 | N[C@@H]1CCCC[C@H]1N.[O]=[Cr](=[O])([O-])[O-].[Pt+2] (relative stereo) [Example 9, chromato trans(-)-1,2-diaminocyclohexane platinum(II)] | 20 | 119 | 6 | 172 | 24 | 106 | 0 | 6 mg/kg/inj and 12 mg/kg/inj | 143% and 214% | 150% and 200% | 24 mg/kg/inj and 48 mg/kg/inj | 48 | – | – | – | Incidence of BUN > 30 mg % (BDF1 mice [1]; 48 mg/kg ip): 0/5; Incidence of BUN > 30 mg % (BDF1 mice [1]; 72 mg/kg ip): 0/5; Deaths D.14 (BDF1 mice [2]; 48 mg/kg ip): 0/5; Deaths D.14 (BDF1 mice [2]; 72 mg/kg ip): 0/5
2 | NCC1(N)CCCCCCC1.[O-]B([O-])O.[Pt+2] [Example 13, borato 1-aminomethylcyclooctylamine platinum(II)] | 3 | 81 | 2 | 167 | 8 | 88 | 0 | 4 mg/kg/inj | 207% | 229% and 207% | 16 mg/kg/inj | 16 | 2/6 | 8 | 256 | Ratio of Max. % T/C Complex/cDDP (M109 carcinoma; ip M109, relative to concomitant cisplatin): .52; Solubility in methanol ([3]; methanol): soluble; Solubility in water ([3]; water): soluble; Ratio of Max. % T/C Complex/cDDP (B16 melanoma; ip B16, relative to concomitant cisplatin): .90; Ratio of Max. % T/C Complex/cDDP (C26 carcinoma; ip C26, relative to concomitant cisplatin): .61; Incidence of BUN > 30 mg % (BDF1 mice [1]; 16 mg/kg ip): 0/5; Incidence of BUN > 30 mg % (BDF1 mice [1]; 24 mg/kg ip): 0/5; Deaths D.14 (BDF1 mice [2]; 16 mg/kg ip): 0/5; Deaths D.14 (BDF1 mice [2]; 24 mg/kg ip): 0/5
3 | CC(=O)CC(=O)[O-].CC(=O)CC(=O)[O-].N[C@@H]1CCCC[C@H]1N.[Pt+2] (relative stereo) [Example 4, bis(acetoacetato) trans(-)-1,2-diaminocyclohexane platinum(II)] | 8 | 119 | 1 | 150 | 5 | 120 | 0 | 5 mg/kg/inj | 214% | 200% and 207% | 20 mg/kg/inj and 18 mg/kg/inj | 20 | – | 12 | 163 | Incidence of BUN > 30 mg % (BDF1 mice [1]; 20 mg/kg ip): 0/5; Incidence of BUN > 30 mg % (BDF1 mice [1]; 30 mg/kg ip): 0/5; Deaths D.14 (BDF1 mice [2]; 20 mg/kg ip): 0/5; Deaths D.14 (BDF1 mice [2]; 30 mg/kg ip): 0/5; Cures/total (L1210 leukemia; L1210, QD 1 → 5, ip): 1/6
4 | N[C@@H]1CCCC[C@H]1N.O=C([O-])CCC(=O)C(=O)[O-].[Pt+2] (relative stereo) [Example 14, 2-ketoglutarato trans(-)-1,2-diaminocyclohexane platinum(II)] | – | – | 3 | 135 | – | – | – | 16 mg/kg/inj | 250% | 214% and 193% | 16 mg/kg/inj | – | 2/6 | 12 | 169 | –
